In patent US9274101B2 (BIOLOG, Inc., priority 2001, dated 2016):
Where a SMILES comes first, the peptide text is derived from it. [ ]: non-standard residue; d: D form.

Test system: HL-60 cells
Assay: Effect of 10 mM citric acid on HL-60 energy utilization
Assay type: cell-based, human
Conditions: not given

Row | Molecule | cell activity in the presence of citric acid, in words
1 | O=C1O[C@H]([C@@H](O)CO)[C@@H](O)[C@@H]1O [L-galactonic acid γ-lactone] | capable of overcoming the antiproliferative effects of citric acid
2 | O=C1O[C@@H]([C@H](O)CO)[C@H](O)[C@H]1O [D-galactonic acid-γ-lactone] | capable of overcoming the antiproliferative effects of citric acid

Same assay, conditions: 10 mM citric acid

Row | Molecule | cell activity, % of the control without citric acid
3 | COC(=O)CCC(=O)O [Mono-methyl succinate] | up to 210%

Test system: E. coli MG1655
Assay: not given
Assay type: cell-based, Escherichia coli
Conditions: not given

Row | Molecule | suitability as nitrogen source (growth, purple color)
4 | N[C@@H](CS)C(=O)O [L-cysteine] | not suitable

Test system: ten strains of E. coli
Assay: not given
Assay type: cell-based, Escherichia coli
Conditions: not given

Row | Molecule | carbon source utilization | carbon source utilization (text)
5 | O=C[C@H](O)[C@@H](O)[C@H](O)[C@H](O)COP(=O)(O)O [Glucose-6-phosphate] | + | 
6 | O=C(CO)[C@@H](O)[C@H](O)[C@H](O)COP(=O)(O)O [Fructose-6-phosphate] | + | 
7 | O=C1O[C@H]([C@@H](O)CO)[C@@H](O)[C@@H]1O [L-galactonic acid γ-lactone] | + | 
8 | O=P(O)(O)O[C@H]1O[C@H](CO)[C@@H](O)[C@H](O)[C@H]1O [Glucose-1-phosphate] | + | 
9 | COC(=O)CCC(=O)O [Mono-methyl succinate] | + | 
10 | O=P(O)(O)OCC(O)CO (racemic) [D,L-α-glycerol phosphate] | + and − | 
11 | O=C1O[C@@H]([C@H](O)CO)[C@H](O)[C@H]1O [D-galactonic acid-γ-lactone] | − and + | negative

Test system: HL-60 cells
Assay: HL-60 responses in PM1a, PM6, PM7 and PM8 plates
Assay type: cell-based, human
Conditions: not given
Experimental: In this Example, methods for testing unattached cells for their ability to use various carbon sources including di and tri-peptides are described.
After washing, HL-60 cells were resuspended in DME-R. An aliquot of the cell suspension was counted by trypan blue exclusion and the cell density was adjusted to 1×10^6/mL. Fifty μL of DME-R were added to each well of the appropriate number of half area, 96-well plates. The cells were plated at a volume of 50 μL/well, giving a final cell density of 5×10^4/well. PM1a, MP6, PM7, and PM8 MICROPLATE testing plates were inoculated (these MICROPLATE testing plates are available from Biolog under license). For each plate containing chemicals and cells, a second, control plate containing only chemicals was prepared. All wells contained a total volume of 100 μL. Plates were incubated at 5% CO2, 90-100% humidity, and 37° C. for 1 hour prior to addition of the MTS/MPMS colorometric reagent (5 μL/well). The color formed in each well after an additional 24 hour incubation period, was measured on a plate reader at 490 nm with a reference wavelength of 650 nm. OD values from the control plate were subtracted from the OD values obtained with cells prior to normalizing the data to % negative control (cells without added energy source).

Row | Molecule | response of HL-60 cells to peptides
12 | N[C@@H](CO)C(=O)N[C@@H](Cc1ccccc1)C(=O)O [ser-phe] | positive response

Same assay, conditions: PM6, PM7, PM8; positive = greater than 130% of the negative control

Row | Molecule | response of HL-60 cells to peptides
13 | CC(C)[C@H](N)C(=O)N[C@@H](CCC(N)=O)C(=O)O [val-gln] (H-Val-Gln-OH) | positive response
14 | C[C@@H](N)C(=O)N[C@H](C)C(=O)O [D-ala-D-ala] (H-[dA]-[dA]-OH) | positive response
15 | N[C@@H](Cc1ccc(O)cc1)C(=O)N[C@@H](Cc1ccccc1)C(=O)O [tyr-phe] (H-Tyr-Phe-OH) | positive response
16 | NCC(=O)N[C@@H](Cc1cnc[nH]1)C(=O)O [gly-his] (H-Gly-His-OH) | positive response
17 | N[C@@H](Cc1cnc[nH]1)C(=O)N[C@@H](Cc1cnc[nH]1)C(=O)O [his-his] | positive response
18 | CC(C)[C@@H](NC(=O)CN)C(=O)O [gly-D-val] (H-Gly-[dV]-OH) | positive response
19 | NCC(=O)NCC(=O)O [gly-gly] (H-Gly-Gly-OH) | positive response

Test system: E. coli MG1655
Assay: not given
Assay type: cell-based, Escherichia coli
Conditions: not given
Remark: another data set of the same source

Row | Molecule | suitability as sulfur source (growth, purple color) | suitability as phosphorus source (growth, purple color)
20 | N[C@@H](CS)C(=O)O [L-cysteine] | positive | 
21 | O=C[C@H](O)[C@@H](O)[C@H](O)[C@H](O)COP(=O)(O)O [Glucose-6-phosphate] |  | positive
22 | O=C(CO)[C@@H](O)[C@H](O)[C@H](O)COP(=O)(O)O [Fructose-6-phosphate] |  | positive
23 | O=P(O)(O)O[C@H]1[C@H](OP(=O)(O)O)[C@@H](OP(=O)(O)O)[C@H](OP(=O)(O)O)[C@@H](OP(=O)(O)O)[C@H]1OP(=O)(O)O [inositol hexaphosphate] |  | not suitable
24 | O=c1ccn([C@@H]2O[C@H](CO)[C@@H](O)[C@H]2OP(=O)(O)O)c(=O)[nH]1 [uridine 2′-monophosphate] |  | positive
25 | phosphatidyl glycerol |  | not suitable
26 | O=C[C@@H](O)[C@H](O)[C@H](O)COP(=O)(O)O [arabinose 5-phosphate] |  | positive
27 | N[C@H]1C(O)O[C@H](COP(=O)(O)O)[C@@H](O)[C@@H]1O (stereo partly drawn) [glucosamine 6-phosphate] |  | positive
28 | N[C@H]1C(OP(=O)(O)O)O[C@H](CO)[C@@H](O)[C@@H]1O (stereo partly drawn) [glucosamine 1-phosphate] |  | positive
29 | CSCCC(NC(=O)CN)C(=O)O (racemic) [glycyl-DL-methionine] | positive | 
30 | NCCS(=O)(=O)O [taurine] | positive | 
31 | Cc1cn([C@H]2C[C@@H]3OP(=O)(O)OC[C@H]3O2)c(=O)[nH]c1=O [thymidine 3′:5′-cyclic monophosphate] |  | not suitable
32 | O=P(O)(O)O[C@H]1O[C@H](CO)[C@@H](O)[C@H](O)[C@H]1O [Glucose-1-phosphate] |  | positive
33 | N[C@@H](CSC[C@H](N)C(=O)O)C(=O)O [lanthionine] | positive | 
34 | N[C@H](COP(=O)(O)O)C(=O)O [O-phospho-D-serine] |  | positive
35 | O=P(O)(O)CP(=O)(O)O [methylene diphosphonic acid] |  | not suitable
36 | O=S(=O)(O)SSS(=O)(=O)O [tetrathionate] | positive | 
37 | O=P(O)(O)OC(CO)CO [β-glycerophosphate] |  | positive
38 | C=C(OP(=O)(O)O)C(=O)O [phosphoenol pyruvate] |  | positive
39 | Nc1nc2c(ncn2[C@@H]2O[C@@H]3COP(=O)(O)O[C@H]3[C@H]2O)c(=O)[nH]1 [guanosine 3′:5′-cyclic monophosphate] |  | not suitable
40 | O=C(O)CP(=O)(O)O [phosphonoacetic acid] |  | not suitable
41 | O=S1(=O)CCCC1 [tetramethylene sulfone] | not suitable | 
42 | O=S(=O)(O)CCO [isethionate] | positive | 

Row | Molecule | suitability as sulfur source (growth, purple color) | suitability as phosphorus source (growth, purple color)
43 | N[C@@H](Cc1ccc(OP(=O)(O)O)cc1)C(=O)O [O-phospho-L-tyrosine] |  | positive
44 | O=C(COP(=O)(O)O)[C@@H](O)[C@H](O)[C@H](O)CO [fructose 1-phosphate] |  | positive
45 | C[C@@H](OP(=O)(O)O)[C@H](N)C(=O)O [O-phospho-L-threonine] |  | positive
46 | N[C@@H](CS(=O)O)C(=O)O [L-cysteine sulphinic acid] | positive | 
47 | O-acetyle-serine with sodium sulfate | positive | 
48 | OP(O)(O)=S [thiophosphate] | positive | positive
49 | NCCS(=O)O [hypotaurine] | positive | 
50 | Nc1ncnc2c1ncn2C1OC(CO)C2OP(=O)(O)OC21 (stereo not drawn) [adenosine 2′:3′-cyclic monophosphate] |  | not suitable
51 | O=S(O)(O)=S [thiosulfate] | positive | 
52 | O=P(O)(O)OP(=O)(O)O [pyrophosphate] |  | not suitable
53 | O=P(O)(O)OC1O[C@H](CO)[C@@H](O)[C@H](O)[C@@H]1O (stereo partly drawn) [mannose 1-phosphate] |  | positive
54 | CCSCCC(N)C(=O)O (racemic) [DL-ethionine] | not suitable | 
55 | Nc1nc2c(ncn2[C@@H]2O[C@H](CO)[C@H]3OP(=O)(O)O[C@H]32)c(=O)[nH]1 [guanosine 2′:3′-cyclic monophosphate] |  | positive
56 | CC(=O)N[C@@H](CS)C(=O)O [N-acetyl cysteine] | not suitable | 
57 | C[C@H](CCC(=O)NCCS(=O)(=O)O)[C@H]1CC[C@H]2[C@@H]3[C@H](O)C[C@@H]4C[C@H](O)CC[C@]4(C)[C@H]3C[C@H](O)[C@]12C [taurocholic acid] | positive | 
58 | CN(CC(=O)O)C(=N)NP(=O)(O)O [phosphocreatine] |  | positive
59 | N[C@@H](CSCSC[C@H](N)C(=O)O)C(=O)O [L-djenkolic acid] | positive | 
60 | O=CC[C@@H](O)[C@H](O)[C@H](O)COP(=O)(O)O [2′-deoxyglucose 6-phosphate] |  | positive
61 | O=P(O)(O)OCC(O)CO (racemic) [D,L-α-glycerol phosphate] |  | positive
62 | Nc1ccn([C@@H]2O[C@@H]3COP(=O)(O)O[C@H]3[C@H]2O)c(=O)n1 [cytidine 3′:5′-cyclic monophosphate] |  | not suitable
63 | O=C[C@@H](O)[C@@H](O)[C@H](O)[C@H](O)COP(=O)(O)O [mannose 6-phosphate] |  | positive
64 | CCCCCCCCCCCCS(=O)(=O)O [1-dodecane-sulfonic acid] | not suitable | 
